Assay results taken from patent publication US20230277669A1, “USES OF UROLITHINS” (Amazentis SA, priority 2022, published 2023).

Test system: CD8+ T cells
Assay: In vitro stimulation of CD3+ T cells with aCD3/aCD28 beads in presence of UA
Assay type: cell-based, FVB mice
Description: (FIG. 2A) Scheme of CD3+ T-cell activation and analysis for various timepoints. (FIG. 2B) Reduced effector molecule expression on in vitro treated cells (n=3 pooled from three independent experiments). Isolated T-cells were stimulated for 48 h at the presence of UA or DMSO in the indicated doses. Data are mean ± SD, *p < 0.05 by two-sided t-test. (FIG. 2C) Reduced effector molecule expression on in vitro treated cells (n=3 pooled from three independent experiments). Isolated T-cells were stimulated for 48 h at the presence of UA or DMSO in the indicated doses. Data are mean ± SD, *p < 0.05 by two-sided t-test. (FIG. 2D) Quantification of T memory stem cells (TSCM: CD44^-CD62L^+Sca1^hi) after 24 h, 48 h and 96 h post stimulation with aCD3/aCD28 stimulation beads as indicated in (A) (n=4 pooled from four independent experiments). Data are mean ± SD, statistical analysis was performed via two-sided t-test (*p < 0.05; **p < 0.01; n.s. not significant). (FIG. 2E) Mitochondrial membrane potential within naïve CD62L^+CD44^-CD8^+ T cells, with TMRM^lo representing cells with low mitochondrial membrane potential. Cells were stimulated for 48 h as depicted in (A). Data are mean ± SD, n=4; ***p <0.001 by two-sided t-test. Experiment was repeated twice in independent experiments. (FIG. 2F) Representative histogram and quantification of memory marker CD95 expression in CD62L^+CD44^-CD8^+ cells, 48 hours after in vitro stimulation. Data are mean ± SD; n=5; ****p < 0.0001 by two-sided t-test. Data depicts one of two independent experiments. (FIG. 2G) Analysis of TIL of UA-fed mice, treated as depicted in FIG. 1J. Percentage of TSCM within CD8+ (G; n=7), as well as TCF1 (H; n=7) PD1^hi,Tim3^hi and CTLA4hi (I-K, all n=6) in the TIL CD8+ population are shown. Data are mean ± SD, statistical analysis was performed via two-sided t-test (*p < 0.05; **p < 0.01;, ***p <0.001.). Data depicts one of two independent experiments. (FIG. 2H) The same experiment as FIG. 2G with TCF1 (n=7) in the TIL CD8+ population. (FIG. 2I) The same experiment as FIG. 2G with PD1^hi (n=6) in the TIL CD8+ population. (FIG. 2J) The same experiment as FIG. 2G with Tim3^hi (n=6) in the TIL CD8+ population. (FIG. 2K) The same experiment as FIG. 2G with CTLA4hi (n=6) in the TIL CD8+ population. (FIG. 2L) Flow cytometry readout of ex vivo cytokine release of previously isolated TIL upon re-stimulation with PMA/ionomycin. Data are mean ± SD with n=7 per group. Statistical analysis was performed by two-sided t-test (**p < 0.01). One out of two independent experiments are shown. (FIG. 2M) Flow cytometry readout of ex vivo cytokine release of previously isolated TIL upon re-stimulation with PMA/ionomycin. Data are mean ± SD with n=7 per group. Statistical analysis was performed by two-sided t-test (**p < 0.01). One out of two independent experiments are shown.
(FIG. 4A) Scheme of CD3+ T-cell activation and analysis for various timepoints in order to investigate mitophagy induction in vitro. (FIG. 4B) Analysis of mitochondrial membrane potential within CD8+ T cells, with TMRM^lo representing cells with low mitochondrial membrane potential. Analysis was performed six hours after stimulation with aCD/aCD28 stimulation beads at the presence of the indicated treatments. N=4 per group, *p < 0.05 by Mann Whitney U test. One of two independent experiments are shown. (FIG. 4C) Representative flow histogram and quantification of lysosome formation in CD8+ cells six hours after in vitro stimulation. MFI shown relative to DMSO controls, n=4. Data are normalised mean ± SD, statistical analysis by two-sided t-test. One out of two independent experiments are shown. (FIG. 4D) Mitotracker Red staining of in vitro stimulated CD8+ cells after 24 hours of Urolithin A (UA25 n=6; UA50 n=6) or vehicle control treatment (DMSO: n=4). A representative flow histogram depicting identification of Mitotracker^hi cells is shown. […]

With O=c1oc2cc(O)ccc2c2ccc(O)cc12 [Urolithin A] the “number of CD44-CD62L+Sca1hi TSCM” value (24 h, 48 h and 96 h post stimulation) was “in a dose dependent manner to a significantly increased number”, the “loss of mitochondrial content per T cell subset (TSCM, TCM, TEFF)” value (24 hours, 50 µM Urolithin A) was “deteted in all T cell subsets analyzed” and the “mitochondrial content (Mitotracker Red) in CD8+ cells” value (24 hours, UA25, UA50) was “loss of mitochondrial content in a dose-dependent manner”. The “TSCM formation, stimulated vs unstimulated CD8+ cells” value (48 h, aCD3/CD28 beads +-UA or unstimulated) was “only formed in activated T cells”, the “PGC-1 expression in CD8+ cells” value (48 h, prolonged UA administration in vitro) was “marked upregulation of PGC-1” and the “CD95 expression in CD62L+CD44-CD8+ cells” value (48 hours after stimulation) was “increased CD95 expression”. For the same compound, the TCF1 expression (48 h stimulation) was “high expression of TCF1”, the “cyclin D1 expression” value (48 h stimulation) was “reduced cyclin D1 expression” and the “differentiation into effector T cells (effector molecule expression)” value (48 h stimulation) was “blocked differentiation into effector T cells”. The “mitochondrial membrane potential (TMRM) in naive CD62L+CD44-CD8+ T cells” value (48 h stimulation) was “reduced mitochondrial membrane potential”, the “naive CD44loCD62Lhi T cells” value (48 h stimulation, different doses of UA) was “significant increase” and the “CD8+ T cell division (CTV staining)” value (72 h stimulation) was “restricted CD8+T cell division in a dose-dependent manner”. The “mitochondrial membrane potential in CD8+ T cells” value (six hours after UA administration) was “reduction of mitochondrial membrane potential” and the “lysosome formation in CD8+ cells” value (six hours after stimulation) was “enhanced lysosome formation”.
